Where a name gives a salt, the structure may show the parent alone. Read-outs that look alike come from different tables or passages of the source. Where only a bound is given, the exact number is not on record here.

The nature of series [1]: adhesion studies on tablet punches. In kind it is physicochemical. The note with it: for Adhesion, 5% (S)-Amlodipine salt in Avicel: 5% API blend with Avicel PH 101, 0.2 metric tons; for Adhesion, 5% (S)-Amlodipine salt in Avicel / Adhesion, 25% (S)-Amlodipine salt in Avicel: punch wash assayed by HPLC; for Adhesion, 25% (S)-Amlodipine salt in Avicel: 25% API blend with Avicel PH 101, 0.2 metric tons; for adhesion to solid dosage form manufacturing equipment compared to other salts: blended at 5% and 25% with Avicel. The method, then:
Avicel PH 101 and each (S)-amlodipine salt were pre-screened through a 25-mesh sieve to delump the powders prior to blending. […] Approximately 500 mg was weighed into the ½-inch tablet die, a tablet punch was added and 0.2 metric tons of pressure was applied using a Carver press for 2-3 seconds. The tablet was then removed, and the surfaces of the tablet punches (concave, SRC) were washed with mobile phase (1 mL). The wash was then assayed by HPLC. Three measurements were made for each blend.

For series [2] the following is noted: no buffer.
The nature of series [3]: hygroscopicity studies in relative humidity chambers. To be noted: 31, 75, 84 and 95% relative humidity, approximately one week. The series is classed as physicochemical. As for the experimental part: Hygroscopicity studies were performed by placing portions of a select form in a 11, 32, 45, 66, 75, 84% or 95% relative humidity (RH) chamber for approximately one to three weeks. Desolvation studies were carried out by heating each form in an 80° C. oven for approximately one week. Interconversion experiments were carried out by making slurries containing two forms in a saturated solvent. The slurries were agitated for approximately seven days at ambient temperature. The insoluble solids were recovered by filtration and analyzed using XRPD.

The conditions of series [4]: pH 4.
Excerpt: (§2) The solution was sampled periodically, filtered using a 0.2 μm PTFE syringe filter and assayed by HPLC.
(§3) The sample was filtered through a 0.2 μm filter and assayed by HPLC.
Series [5] can be described thus: true, bulk and tapped density. The series is classed as physicochemical. As for the experimental part:
Bulk and Tap Density: Bulk and tap densities were determined (˜10 grams in a 50 mL graduated cylinder) using a Quantachrome Dual Autotap instrument. The bulk density was measured after 3 taps, and the tapped density was measured after 1000 taps. True Density: True density was determined using a MVP-2 Quantachrome micropycnometer and He gas.

Series [6] is described as follows: water solubility in DI H2O. To be noted: pH 3.56.
Excerpt: as §2, §3
The format of series [7] is physicochemical. The note with it: 60° C./75% RH. The method, then: Individual samples were prepared and stored at 25° C./60% RH and 40° C./75% RH. Samples stored at 60° C./75% RH were packaged in uncapped glass vials. All samples were analyzed for assay and impurity by HPLC.
A short description of series [8]: water content by Karl Fischer titration. In kind it is physicochemical. The note with it: coulometric titration. The method, then: (§1) Moisture Sorption Isotherms: Moisture sorption isotherms were generated using VTI SGA-100 symmetric vapor sorption analyzer. Samples were not pre-dried. Equilibrium criteria were the lesser of 0.01 wt % change in 5 minutes or 180 minutes at each RH step. Temperature was fixed at 25° C. and the relative humidity steps (25% to 95% to 25%) were in 5% increments. In FIG. 27, adsorption data is shown as a solid line with desorption data connected by a dashed line. Water Content: Water content was determined by coulometric titration using an EM Science Aquastar® C300 Karl Fischer titrator. TGA: Samples were analyzed using Perkin Elmer TGA 7 thermal gravimetric analyzer at a heating rate of 10° C./min.

A short description of series [9]: TGA. In kind it is physicochemical. The note with it: heating rate 10° C./min. As for the experimental part:
as §1

Series [10] is classed as physicochemical. The method, then: The GLpKa potentiometric system uses expert system software to calculate and refine the pKa and Log P from simple acid and base titrations of chemical substances. […] The solution was then titrated with acid to the final pH. The pH range of the experiment was 3-11. An approximate pKa was determined, and refined to a final value using the expert system software. The Log P was determined by titration in the presence of octanol. The pKa in water and the pKa in the presence of octanol were compared, and the Log P value was calculated (Avdeef A. Quant. Struct.-Act. Relate. 1992, 11, 510). […] Samples were analyzed in duplicate.

The nature of series [11]: moisture balance (polymorph characterization). The series is classed as physicochemical. The note with it: equilibrated at 95% RH (sorption from 5% to 95% RH). As for the experimental part:
Moisture-sorption data were collected on a VTI SGA-100 moisture balance system. […] The sample was not dried prior to analysis. Equilibrium criteria used for analysis were less than 0.0100 weight-percent change in 5 minutes with a maximum equilibration time of 3 hours if the weight criterion was not met. The data were not corrected for the initial moisture content of the sample.

The format of series [12] is physicochemical. To be noted: pH 3.8. As for the experimental part:
Samples at pH 3.8, 4.5, and 5.0 were monitored over 1 week. […] The sample at pH 8.0 was monitored over 2 days. […] The samples at pH 3.8 or greater were filtered using 0.2 μm PTFE syringe filters and assayed by HPLC. Saturated solutions with excess solid (S)-amlodipine L-malate were prepared and allowed to mix overnight at ambient temperature.

Series [13] in a line: wettability. In kind it is physicochemical. The note with it: DI water and 100 mM aqueous buffers.
Series [14] can be described thus: specific surface area (BET). In kind it is physicochemical. The note with it: N2, single measurement. The method, then: The sample was degassed for 2 hours prior to surface area analysis at 40° C./vacuum using the Micromeritics […] 061. […] The surface area of (S)-amlodipine L-malate SCL was determined using the BET method. BET (Specific) Surface Area measurement was done with a single run (n=1), using 6 different partial pressures of N2 gas (as the adsorbate). See Brunauer, […]., and Teller, E. J. Amer. Chem. Soc. 1938, 60, 309.

Series [15] is classed as physicochemical. As for the experimental part:
as §1
The source holds these as a separate data set.

Regarding `O=C(O)[C@H](O)[C@@H](O)C(=O)O` [(L)-Tartrate], in series [1], the “Adhesion, 5% (S)-Amlodipine salt in Avicel” value is reported as 9.3E−07 g (S)-amlodipine/cm^2 and the “Adhesion, 25% (S)-Amlodipine salt in Avicel” value is 4.9E−06 g (S)-amlodipine/cm^2.
For `CCOC(=O)C1=C(COCCN)NC(C)=C(C(=O)OC)[C@@H]1c1ccccc1Cl.O=C(O)C(O)C(O)C(=O)O` [(S)-amlodipine D-tartrate], in series [1], the “Adhesion, 5% (S)-Amlodipine salt in Avicel” value is 6.0E−07 g (S)-amlodipine/cm^2 and the “Adhesion, 25% (S)-Amlodipine salt in Avicel” value was 2.8E−06 g (S)-amlodipine/cm^2.
Take `CCOC(=O)C1=C(COCCN)NC(C)=C(C(=O)OC)[C@@H]1c1ccccc1Cl` [(S)-amlodipine maleate]: the “pH of saturated solution in water” value in series [2] turned out to be 4.9. This compound displayed a loss (after 5 hours @ pH 1) of 1%. This compound also returned a loss (after 50 hours @ pH 5) of 1%. Moreover, in series [1], the “Adhesion, 5% (S)-Amlodipine salt in Avicel” value is reported as 5.8E−07 g (S)-amlodipine/cm^2 and the “Adhesion, 25% (S)-Amlodipine salt in Avicel” value was 3.9E−06 g (S)-amlodipine/cm^2.
Regarding (S)-amlodipine L-malate, in series [3], the “solid form after humidity storage” value is “remained unchanged”. Also, the “Free Base Concentration” value in series [4] is 10.1 mg/mL; in series [6] it was 6.0 mg/mL. In addition, the “Malate Concentration” value in series [4] amounted to 13.4 mg/mL; in series [6] it was 8.0 mg/mL. In addition, the True density amounted to 1.38 g/cc in series [5] and 1.38 g/mL in series [5] (micropycnometer, He gas). In series [5] (after 3 taps), the Bulk density is on record as 0.31 g/mL. This compound also yielded a Tapped density in [5] (after 1000 taps) of 0.49 g/mL. For the same compound, the “Adhesion, 5% (S)-Amlodipine salt in Avicel” value in series [1] is given as 4.9E−07 g (S)-amlodipine/cm^2. The “Adhesion, 25% (S)-Amlodipine salt in Avicel” value in series [1] is on record as 2.6E−06 g (S)-amlodipine/cm^2. In addition, the “adhesion to solid dosage form manufacturing equipment compared to other salts” value was “decreased adhesion” in [1]; “less than for the succinate, maleate, (D)-tartrate, and (L)-tartrate salts” in [1] (listed as malate salt). Besides, the “time for which the solid was fairly stable” value in series [7] is greater than 2 months. In [8], the “KF (% H2O)” value was found to be 0.13 % H2O. Also, the “TGA (% wt loss)” value in series [9] came out at 0.14 % wt loss. In series [10], the pKa was 9.19±0.20. In addition, the “Log P” value in series [10] (pH 5) is −2.67±0.40; in series [10] (pH 7.4) it was −0.28±0.40. Also, in series [11], the “increase in weight, moisture balance” value was 0.5%. The compound also displayed a solubility in [12] greater than 100 mg/mL. Also, in series [13], the wettability entry is listed as “good wettability”. In addition, the Specific surface area in series [14] is on record as 0.7 m^2/g. The “Moisture Desorption (% wt remaining at 25% RH)” value in series [15] turned out to be 0.06 % wt remaining. The “Moisture Adsorption (% wt gain at 95% RH)” value in series [15] (25° C., 95% RH) is listed as 0.24 % wt gain. Besides, the “maximum adsorption of water” value in series [15] (25° C./95% RH, three lots tested) was no more than 0.30%. For the same compound, the “hygroscopicity (in words)” value in series [15] (moisture sorption, TGA and Karl Fischer data) is given as “not hygroscopic”.

These data come from US20060030602A1, “(S)-amlodipine malate” (Sepracor Inc., priority 2004, published 2006).
